Earlier results on one molecule are cited in PMC4948595 (Journal of Medicinal Chemistry, 2016).

In the data set the test system is influenza endonuclease.

Regarding `O=c1[nH]cc(-c2ccc(-c3nnn[nH]3)cc2)cc1O` [Parhi-6], the IC50 is 368 ± 41 nM.
